“Also recorded” adds a separate entry of the source. Where two headings read alike, the source gives them in different places.

One data set relates to IFT88 localization. The data set can be described thus: IFT88 immunostaining in NIH3T3 cells. The format is cell-based. The following applies: EGM 5 μM, ciliobrevin D 100 μM. An excerpt:
To investigate whether the disruption of the cilium-to-nucleus trafficking of Gli2 by eggmanone was due to a general defect in the retrograde transport within the primary cilium, we compared the effect of the cytoplasmic dynein motor inhibitor ciliobrevin D with the effect of eggmanone on the intraflagellar transport protein 88 (IFT88) trafficking^19. […] Thus, the effects of eggmanone on Gli2 trafficking is specific, rather than an indirect consequence of a global defect in ciliary transport machinery.

The next data set relates to Gli1 transcription. The data set is described as follows: Sufu−/− mouse embryonic fibroblasts qRT-PCR. The following applies: Gli1 and Ptch1. In kind it is cell-based. From the text: In light of EGM1's ability to halt Hh transcriptional activity at a node downstream of the negative regulator Sufu, and thus also downstream of Smo, we sought to confirm mode of action retention with our most promising analogs. Therefore, we employed Sufu−/− mouse embryonic fibroblasts (MEF) that display constitutively active transcription of Hh target genes Gli1 and Ptch1 and monitored the ability of our optimized analogs to repress signaling via quantitative reverse transcription-PCR (qRT-PCR). […] We then evaluated improved analogs from multiple structural classes including those from Table 1 with cyclohexylthiophene cores as well as from Table 13 with structurally distinct core modifications.
Sufu^−/− cells were seeded into 12-well plates at a density of 100,000 cells/well in D10 FBS and incubated for 24 hours. Small molecule solutions were prepared by adding the desired amount of compound from 10 mM DMSO stock to D0.5 FBS. Negative control was prepared by adding an equi-volume amount of DMSO to D0.5 FBS as compared to small molecule treated conditions. Cell plating medium was aspirated and replaced with 1 mL of prepared small molecule-containing media, and plates were incubated for 24 hours before proceeding to RNA isolation.
Cells were washed 1× with 1× phosphate-buffered saline (PBS) then RNA was isolated using the Qiagen RNeasy Mini Kit (Qiagen, Germantown, Md., USA) according to the manufacturer's protocol, eluting RNA from the spin column with 30 μL of RNase-free water. RNA was placed on ice and immediately subjected to reverse transcription. Remaining RNA was stored at −80° C.
Reverse transcription polymerase chain reaction (RT-PCR) was performed with the Applied Biosystems High Capacity cDNA Reverse Transcription Kit (ThermoFisher Scientific, Waltham, Mass., USA) using an Eppendorf MasterCycler. Each 20 μL reaction contained 0.5 μg of total RNA, 2 μL of 10×RT Buffer, 0.8 μL of 25×dNTP Mix (100 mM), 2 μL of 10×RT Random Primers, 1 μL of MultiScribe® Reverse Transcriptase (50 U/μL), 1 μL of Recombinant RNasin® Ribonuclease Inhibitor (40 U/μL) (Promega, Madison, Wis., USA), and nuclease-free water. Reverse transcription was performed with the following program: 25° C. for 10 minutes, 37° C. for 120 minutes, and 85° C. for 5 minutes. The cDNA was subjected to quantitative real-time PCR (Q-PCR) or stored at −20° C.
Quantitative real-time PCR was performed on an Applied Biosystems 7900 HT Fast Real Time PCR System in 384-well format. Each cDNA sample was assayed in triplicate with both probe of interest and control probe. Master mixes for each probe were prepared corresponding to 10 μL of Applied Biosystems TaqMan Universal PCR Master Mix (ThermoFisher Scientific, Waltham, Mass., USA), 1 μL of primer, and nuclease-free water corresponding to a volume providing 20 μL reactions when loading an average of 50 ng of cDNA. Quantitative real-time PCR was run with the following thermal cycling protocol: 50° C. for 2 min., 95° C. for 10 min., and 40 cycles of 95° C. for 15 seconds, 60° C. for 1 min., then fluorescence reading. The following FAM probes were purchased from Life Technologies (Carlsbad, Calif., USA): mouse GAPDH, Mm99999915_g1; mouse Gli1, Mm00494646_g1; mouse Ptch1, Mm01306905_m1.
Quantitative real-time PCR data for Hh signaling inhibition was quantitated using the ΔΔCt method. Control probe values were subtracted from probe of interest values to arrive at the ΔCt value. The ΔCt value was transformed by 2-^ΔCt to arrive at the ΔΔCt value. All ΔΔCt values were divided by the average negative control ΔΔCt value to provide percent Hh signaling activity. Percent inhibition values were derived by calculating the inverse of percent activity. Data is reported as mean±standard error of the mean (SEM), representing at least two biological replicates, each quantitated in triplicate.
On the technique in general: Quantitative PCR measures a nucleic acid by following its amplification.

The subject of data set [1] is Hedgehog signaling (TM3-Gli-Luc). The data set is described as follows: TM3-Gli-Luc luciferase reporter assay stimulated with 20 nM SAG. In kind it is cell-based. In short, it runs like this: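 Luciferase read-out divided by CellTiter-Glo viability, minus DMSO/no-SAG baseline, expressed relative to 20 nM SAG alone. Cells exposed to compound with SAG for 48 h at 37 °C in 2.5% FBS DMEM/F12 on gelatin. EC50 ±SEM from at least two separate-day runs.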
In general terms: Reporter assays use an easily measured gene product as a stand-in for the process of interest.

The next data set has as its system TM3-Gli-Luc cells. The data set can be described thus: TM3-Gli-Luc cell viability (Cell Titer Glo, LD50). In kind it is cell-based. How it is done: On the day of cell plating, 96-well plates were coated with 50 μL/well of sterile 0.1% gelatin for 5 minutes then aspirated and replaced with 50 μL/well of TM3 Culture Medium. TM3-Gli-Luc cells were seeded at a density of 5,000 cells/well in TM3 Culture Medium and incubated for 24 hours. A master mix of 20 nM SAG in TM3Luc Medium was prepared, and small molecule solutions were prepared by adding the desired amount of compound from 10 mM DMSO stock to TM3Luc Medium containing 20 nM SAG. Negative control was prepared by adding an equi-volume amount of DMSO as compared to small molecule treated conditions to TM3Luc Medium not containing SAG. Cell plating medium was aspirated and replaced with 100 μL/well of prepared small molecule-containing media, and plates were incubated for 48 hours before proceeding to luciferase activity and cell viability reading.
TM3Luc Medium from compound treated plates was aspirated and replaced with 82 μL/well of Glo Lysis Buffer (Promega, Madison, Wis., USA), and plates were shaken at 300 rpm and room temperature for 12 minutes. Lysate was split between two white 96-well plates, 45 μL/well and 25 μL/well for luciferase reading and cell viability respectively. For luciferase activity monitoring, 45 μL/well of Steady Glo (Promega, Madison, Wis., USA) was added to 45 μL/well of cell lysate, incubated at room temperature for 5 minutes, then luminescence was measured on a Turner Biosystems Modulus Microplate Reader (Sunnyvale, Calif., USA) with an integration time of 0.5 seconds. For cell viability measurement, 25 μL/well of Cell Titer Glo (Promega, Madison, Wis., USA) (prepared by 1:10 dilution with Glo Lysis Buffer) was added to 25 μL/well of cell lysate, incubated at room temperature for 5 minutes, then luminescence was measured as above.
All raw data was divided by the average of positive control cell titer data to arrive at percent cells remaining compared to positive control. […] At least two independent assays tested on separate days were averaged to provide LD50±standard error of the mean.
A general note: ATP-based viability assays read luminescence as a measure of living cells.

The nature of data set [2]: Lipophilic efficiency (LipE = pEC50 − cLogP) and cLogP. The method, then: Therefore, we prioritized phenotypic analog evaluation in the Gli-responsive luciferase reporter line TM3-Gli-Luc stimulated with 20 nM Smo agonist (SAG) while concurrently monitoring non-specific cellular toxicity. Additionally, lipophilic efficiency (LipE), a concurrent readout of a compound's potency (pEC50) and lipophilicity (cLogP) derived by subtracting the latter from the former, was utilized to optimize solubility properties (Table 12B), allowing for straightforward tracking of compounds with improvements in both parameters.

Data set [3] concerns the target T1, Smo cyclopamine (Cyc) binding site (Homo sapiens, UniProt Q99835).
T1 construct: expressed in transfected cells; host or cells: HEK-293T
The data set is described as follows: BODIPY-cyclopamine competition in HEK-293T cells overexpressing Smo. The following applies: KAAD-Cyc 200 nM; analogs at 10- to 20-fold their EC50s. The method, then:
Thus, HEK-293T cells overexpressing Smo were concurrently treated with 5 nM BODIPY-Cyc and molecules of interest.

The target in another data set is consensus PDE4D sequence (Homo sapiens, UniProt Q08499). The data set is described as follows: PDE4D inhibition (consensus PDE4D sequence). The format is biochemical.
Another data set addresses PDE4D (Homo sapiens, UniProt Q08499). The data set is described as follows: PDE4 inhibition assay (PDE4D IC50). In kind it is biochemical. The following applies: mean ± SEM, normalized to DMSO; read-out: PDE4D IC50. The essentials:
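Duplicate 60 min room-temperature reactions hold 100 nM FAM-cAMP substrate, PDE4D enzyme and test compound at 1% final DMSO in pH7.4 Tris buffer. Product FAM-AMP captured by bead binding agent (60 min), with fluorescence read at excitation 485, emission 528 nm.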

The mark [4] stands for this setting: TM3-Gli-Luc reporter line stimulated with 20 nM SAG, mean ± SEM, Table 14, read-out: TM3-Gli-Luc EC50.
The mark [5] stands for this setting: TM3-Gli-Luc reporter line stimulated with 20 nM SAG, mean ± SEM, Table 13, read-out: TM3-Gli-Luc EC50.
Setting [6] is: calculated as pEC50 - cLogP (Molinspiration Cheminformatics), Table 13.

T1 sequence (Q99835 28-787): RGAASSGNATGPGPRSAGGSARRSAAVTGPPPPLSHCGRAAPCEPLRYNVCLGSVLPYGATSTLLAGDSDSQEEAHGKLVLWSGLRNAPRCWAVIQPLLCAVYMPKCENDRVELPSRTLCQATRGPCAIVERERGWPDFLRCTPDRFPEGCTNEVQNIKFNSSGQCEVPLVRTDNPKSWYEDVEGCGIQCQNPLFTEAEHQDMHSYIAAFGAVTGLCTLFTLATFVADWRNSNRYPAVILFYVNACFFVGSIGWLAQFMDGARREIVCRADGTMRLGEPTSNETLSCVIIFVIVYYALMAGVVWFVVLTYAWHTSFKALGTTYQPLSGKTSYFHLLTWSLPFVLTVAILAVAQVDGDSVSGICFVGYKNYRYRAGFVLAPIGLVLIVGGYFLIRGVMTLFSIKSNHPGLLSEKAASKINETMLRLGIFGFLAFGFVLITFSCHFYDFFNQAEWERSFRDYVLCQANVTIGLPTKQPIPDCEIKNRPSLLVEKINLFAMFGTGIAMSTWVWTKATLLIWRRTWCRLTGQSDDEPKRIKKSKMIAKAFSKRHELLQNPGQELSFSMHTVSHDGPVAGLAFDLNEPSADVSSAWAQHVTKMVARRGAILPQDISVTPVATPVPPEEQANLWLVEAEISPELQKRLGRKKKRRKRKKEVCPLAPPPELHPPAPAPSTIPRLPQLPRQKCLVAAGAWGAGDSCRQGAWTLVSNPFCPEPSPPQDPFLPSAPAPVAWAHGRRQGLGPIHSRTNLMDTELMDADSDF
Chain of consensus PDE4D sequence (Q08499 whole entry): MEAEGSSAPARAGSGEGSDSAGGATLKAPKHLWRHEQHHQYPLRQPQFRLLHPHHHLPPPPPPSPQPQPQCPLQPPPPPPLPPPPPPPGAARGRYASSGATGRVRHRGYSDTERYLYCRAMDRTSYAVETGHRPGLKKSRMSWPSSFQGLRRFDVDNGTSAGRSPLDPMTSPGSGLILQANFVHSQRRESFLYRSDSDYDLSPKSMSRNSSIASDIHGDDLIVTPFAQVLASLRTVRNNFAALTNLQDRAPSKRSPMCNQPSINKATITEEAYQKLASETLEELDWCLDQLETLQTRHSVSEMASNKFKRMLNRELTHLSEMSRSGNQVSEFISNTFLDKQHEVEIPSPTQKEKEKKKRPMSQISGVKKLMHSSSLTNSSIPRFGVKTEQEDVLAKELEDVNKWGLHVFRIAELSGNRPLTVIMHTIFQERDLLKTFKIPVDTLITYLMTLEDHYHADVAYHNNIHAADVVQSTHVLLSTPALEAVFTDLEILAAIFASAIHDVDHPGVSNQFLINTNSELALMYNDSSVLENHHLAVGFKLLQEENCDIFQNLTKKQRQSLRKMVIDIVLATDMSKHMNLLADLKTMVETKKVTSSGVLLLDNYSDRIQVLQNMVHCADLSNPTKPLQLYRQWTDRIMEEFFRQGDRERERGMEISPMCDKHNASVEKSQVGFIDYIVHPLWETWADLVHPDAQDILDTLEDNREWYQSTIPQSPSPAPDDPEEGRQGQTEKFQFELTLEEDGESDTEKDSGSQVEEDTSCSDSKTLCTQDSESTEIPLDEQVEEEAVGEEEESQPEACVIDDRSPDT
Chain of PDE4D (Q08499 whole entry): as above
Description for consensus PDE4D sequence: First, the contribution of PDE4 was revisited as a potential explanation for the observed mechanistic drift.

In the case of `N#CC(=C(O)c1ccc(Cl)cc1Cl)c1nc2cc(Cl)ccc2c(=O)[nH]1` [Ciliobrevin D, reference compound], the figures for the “IFT88 localization in the cilium” value with IFT88 localization and with IFT88 localization (listed as ciliobrevin D) were “perturbed the localization of IFT88 in the cilium” and “severely disrupted the IFT88 localization in the cilium”, respectively.
Usually EC50 stands for the concentration at which the effect is half-maximal. Take `C=C(C)Cn1c(SCC(=O)N2CCCCC2C)nc2sc3c(c2c1=O)CCCC3` (stereo not shown) [Formula 9m]: the “Transcriptional inhibition in the Sufu−/− cell line, in words” value (“Transcriptional inhibition” below) in the data set on Gli1 transcription is recorded as “general ability to inhibit transcriptional activity”. The “reduction in potency versus EGM1” value in data set [1] was around 2 fold. For the same compound, the EC50 in data set [1] (20 nM SAG, mean ± standard error of the mean, read-out: TM3-Gli-Luc EC50) was 2.32 ± 0.73 µM; in data set [1] (setting [4]) it was 2.32 ± 0.73 µM. This compound also yielded an LD50 in the data set on TM3-Gli-Luc cells of 16.7 µM. Besides, the “TM3-Gli-Luc LD50” value in the data set with TM3-Gli-Luc cells (mean ± standard error of the mean) was 16.7 ± 0.25 µM. Moreover, the LipE was 0.94 in data set [2] (Calculated as pEC50 - cLogP, Molinspiration Cheminformatics) and 0.94 in data set [2] (pEC50 - cLogP, Table 14).
For `O=C(CSc1nc2ccccc2c(=O)n1C1CC1)c1cccs1` [Formula 14b], the “Transcriptional inhibition” value with Gli1 transcription is “lack of Sufu−/− transcriptional inhibition”. Further, the “Displacement of BODIPY-cyclopamine (5 nM) from Smo” value (“Displacement of BODIPY-cyclopamine” below) in data set [3] is reported as “do not displace the binding of BODIPY-cyclopamine; also recorded: failed to compete for the Smo binding site”. Moreover, the “Hh inhibitory activity / potency in words” value in data set [1] (20 nM SAG) was “potency improvements over EGM1”. In addition, the EC50 in data set [1] (20 nM SAG, read-out: EC50) is 0.685 µM; in data set [1] (setting [5]), 0.685 ± 0.02 µM; in data set [1] (setting [4]), 0.685 ± 0.02 µM. In addition, the LipE is on record as 2.78 in data set [2] (setting [6]) and 2.78 in data set [2] (pEC50 - cLogP, Table 14).
In the case of `O=C(CSc1nc2sccc2c(=O)n1C1CC1)c1cccs1` [Formula 19b], the “Transcriptional inhibition” value in the data set on Gli1 transcription is “lack of Sufu−/− transcriptional inhibition”. Further, the “Displacement of BODIPY-cyclopamine” value in data set [3] is “do not displace the binding of BODIPY-cyclopamine; also recorded: failed to compete for the Smo binding site”. In addition, the EC50 in data set [1] (setting [5]) and in data set [1] (setting [4]) was 0.933 ± 0.1 µM each time. Further, the LipE in data set [2] (setting [6]) is 2.89; in data set [2] (pEC50 - cLogP, Table 14) it was 2.89.
As to `O=C(CSc1nc2sccc2c(=O)n1C1CC1)c1ccccc1` [Formula 19c], in the data set with Gli1 transcription, the “Transcriptional inhibition” value is “lack of Sufu−/− transcriptional inhibition”. Also, the “PDE4D inhibition in words” value on consensus PDE4D sequence was “only modest ICs against PDE4D”. Also, the “Displacement of BODIPY-cyclopamine” value in data set [3] is on record as “do not displace the binding of BODIPY-cyclopamine; also recorded: failed to compete for the Smo binding site”. The EC50 in data set [1] (setting [5]) and in data set [1] (setting [4]) was 0.082 ± 0.01 µM each time. In the data set on TM3-Gli-Luc cells, the Non-specific cellular toxicity entry is reported as “no non-specific cellular toxicity”. Further, the LipE in data set [2] (setting [6]) is given as 3.84; in data set [2] (pEC50 - cLogP, Table 14), 3.84.
What is called IC50 is the concentration needed to halve the response being measured. As to `O=c1c2ccsc2nc(SCC(O)c2ccccc2)n1C1CC1` (stereo not shown) [Formula 20a], the “Transcriptional inhibition” value in the data set on Gli1 transcription is reported as “lack of Sufu−/− transcriptional inhibition”. Moreover, on consensus PDE4D sequence, the “PDE4D inhibition in words” value is “only modest ICs against PDE4D”. Besides, on PDE4D, the half-inhibitory concentration (IC50) came to 6.07 ± 1.5 µM. The “Displacement of BODIPY-cyclopamine” value in data set [3] is on record as “do not displace the binding of BODIPY-cyclopamine; also recorded: failed to compete for the Smo binding site”. The LipE in data set [2] (pEC50 - cLogP, Table 14) was 3.41.
